Measurements taken from US5344831A, “Diazabicyclo derivatives” (Nisshin Flour Milling Co., Ltd., priority 1992, dated 1994).
Counter-ions that a name gives are not always drawn.

Tests used:
5-HT3 receptors = experiment: antagonism of the von Bezold-Jarisch reflex (bradycardia) induced by 5-HT in the anaesthetised rat; format: in vivo; conditions: 5-HT 30 μg/kg given 5 min later, tested as hydrochloride salts
Protocol: Temporary bradycardia is induced by administration of 5-HT (serotonin) to anaesthetised rats via jugular vein (yon Bezold Jarisch Reflex) (A. S. Paintal, Physiol. Rev., 53, 159-210 (1973 ) ).
The compounds of the present invention were evaluated for antagonism of the yon Bezold-Jarisch reflex induced by 5-HT in the anaesthetised rat according to the following method.
Rats were anaesthetised with urethane (1 g/kg, intraperitoneally ) and blood pressure and heart rate recorded from left femoral artery. Percent inhibition was calculated from bradycardia induced by 5-HT (30 μg/kg ) given 5 minutes following intrajugular administration of a compound of the invent ion, taking the bradycardia induced by the intrajugular administration of 5-HT. The compounds of the present invention were tested in the form of their hydrochloride salts.

nausea and vomiting = conditions: intravenous administration at high dose; Gralla et al, N. Engl. J. Med. 305, 905-909 (1981); cited from earlier work

| Structure (SMILES) | Percent Inhibition (5-HT3 receptors; 0.01 μg/kg i.v.) [%] | Percent Inhibition (5-HT3 receptors; 0.1 μg/kg i.v.) [%] | Percent Inhibition (5-HT3 receptors; 1.0 μg/kg i.v.) [%] | prevention of nausea and vomiting (nausea and vomiting) | Percent Inhibition (5-HT3 receptors; 10 μg/kg i.v.) [%] |
| --- | --- | --- | --- | --- | --- |
| CN1C[C@H]2C[C@@H](NC(=O)c3nn(Cc4ccc([N+](=O)[O-])cc4)c4ccccc34)C[C@@H](C1)N2C [Example 9, endo-3,9-Dimethyl-3,9-diazabicyclo[3.3.1]non-7-yl 1-(4nitrobenzyl) indazole-3-carboxamide] | 14 | 41 | 96 |  |  |
| CCN(CC)CCNC(=O)c1cc(Cl)c(N)cc1OC [metoclopramide] |  |  |  | effectively prevented |  |
| CC(C)=CCn1nc(C(=O)N[C@@H]2C[C@@H]3CN(C)C[C@H](C2)N3C)c2ccccc21 [Example 8, endo-3,9-Dimethyl-3,9-diazabicyclo[3.3.1]non-7-yl 1-(3-methyl-2-butenyl) indazole-3-carboxamide] |  | 48 | 100 |  |  |
| COc1ccc(Cn2nc(C(=O)N[C@@H]3C[C@@H]4CN(C)C[C@H](C3)N4C)c3ccccc32)cc1 [Example 5] |  | 29 | 44 |  | 91 |
| CCOCCN1C[C@H]2C[C@@H](NC(=O)c3n[nH]c4ccccc34)C[C@@H](C1)N2C [Example 30, endo-3-(2-Ethoxyethyl)-9-methyl-3,9-diazabicyclo[3.3.1]non-7-yl 1H-indazole-3-carboxamide] |  | 52 | 100 |  |  |
| COC(=O)Cn1nc(C(=O)N[C@@H]2C[C@@H]3CN(C)C[C@H](C2)N3C)c2ccccc21 [Example 16, endo-3,9-Dimethyl-3,9-diazabicyclo[3.3.1]non-7-yl 1-methoxycarbonylmethylindazole-3-carboxamide] |  | 34 |  |  | 88 |
| CN1C[C@H]2C[C@@H](NC(=O)c3nn(Cc4cccc(Cl)c4)c4ccccc34)C[C@@H](C1)N2C [Example 13, endo-3,9-Dimethyl-3,9-diazabicyclo[3.3.1]non-7-yl 1-(3-chlorobenzyl)indazole-3-carboxamide] |  | 27 | 71 |  |  |
| C=CCCCCCCn1nc(C(=O)N[C@@H]2C[C@@H]3CN(C)C[C@H](C2)N3C)c2ccccc21 [Example 6, endo-3,9-Dimethyl-3,9-diazabicyclo[3.3.1]non-7-yl 1-(7octenyl) indazole-3-carboxamide] |  | 19 | 35 |  | 87 |
| C#CCn1nc(C(=O)N[C@@H]2C[C@@H]3CN(C)C[C@H](C2)N3C)c2ccccc21 [Example 7, endo-3,9-Dimethyl-3,9-diazabicyclo[3.3-1]non-7-Yl 1-(2propynyl) indazole-3-carboxamide] |  | 30 | 83 |  |  |
| CN1C[C@H]2C[C@@H](NC(=O)c3nn(Cc4ccc(C(C)(C)C)cc4)c4ccccc34)C[C@@H](C1)N2C [Example 11, endo-3,9-Dimethyl-3,9-diazabicyclo[3.3.1]non-7-yl 1-(4-tert-butylbenzyl) indazole-3-carboxamide] |  | 39 | 53 |  |  |
| CC(O)Cn1nc(C(=O)N[C@@H]2C[C@@H]3CN(C)C[C@H](C2)N3C)c2ccccc21 (stereo partly drawn) [Example 19, endo-3,9-Dimethyl-3,9-diazabicyclo[3.3.1]non-7-yl 1-(2hydroxypropyl) indazole-3-carboxamide] | 40 | 59 |  |  |  |
| CN1C[C@H]2C[C@@H](NC(=O)c3nn(Cc4nc(N)nc(N)n4)c4ccccc34)C[C@@H](C1)N2C [Example 21] | 21 | 38 | 85 |  |  |
| CC(C)CN1C[C@H]2C[C@@H](NC(=O)c3n[nH]c4ccccc34)C[C@@H](C1)N2C [Example 29, endo-3-Isobutyl-9-methyl-3,9-diazabicyclo[3.3.1]non-7-yl 1H-indazole-3-carboxamide] | 27 | 81 |  |  |  |
| CN1C[C@H]2C[C@@H](NC(=O)c3n[nH]c4ccccc34)C[C@@H](C1)N2 [Example 25, endo-3-Methyl-3,9-diazabicyclo[3.3.1]non-7-yl 1H-indazole-3-carboxamide] |  | 21 |  |  |  |
| CCOCCn1nc(C(=O)N[C@@H]2C[C@@H]3CN(C)C[C@H](C2)N3C)c2ccccc21 [Example 17, endo-3,9-Dimethyl-3,9-diazabicyclo[3.3.1]non-7-yl 1-ethoxyethylindazole-3-carboxamide] | 33 | 53 |  |  |  |
| CN1C[C@H]2C[C@@H](NC(=O)c3nn(Cc4ccccn4)c4ccccc34)C[C@@H](C1)N2C [Example 15, endo-3,9-Dimethyl-3,9-diazabicyclo[3.3.1]non-7-yl 1-(2-pyridylmethyl) indazole-3-carboxamide] |  | 47 |  |  |  |
| CN1[C@@H]2CNC[C@H]1C[C@@H](NC(=O)c1n[nH]c3ccccc13)C2 [Example 23, endo-9-Methyl-3,9-diazabicyclo[3.3.1]non-7-yl 1H-indazole-3-carboxamide] |  | 28 | 82 |  |  |
| CN1[C@@H]2C[C@@H](NC(=O)c3n[nH]c4ccccc34)C[C@H]1CN(Cc1ccc(F)cc1)C2 [Example 27, endo-3-(4-Fluorobenzyl)-9-methyl-3,9-diazabicyclo[3.3.1]non-7-yl 1H-indazole-3-carboxamide] |  | 75 | 98 |  |  |
| CN1C[C@H]2C[C@@H](NC(=O)c3nn(Cc4ccc(N)cc4)c4ccccc34)C[C@@H](C1)N2C [Example 20, endo-3,9-Dimethyl-3,9-diazabicyclo[3.3.1]non-7-yl 1-(4aminobenzyl) indazole-3-carboxamide] | 51 | 73 |  |  |  |
| C=CCn1nc(C(=O)N[C@@H]2C[C@@H]3CN(C)C[C@H](C2)N3C)c2ccccc21 [Example 2, endo-3,9-Dimethyl-3,9-diazabicyclo[3.3.1]non-7-yl 1-allylindazole-3-carboxamide hydrochloride] | 11 | 86 |  |  |  |
| CN1C[C@H]2C[C@@H](NC(=O)c3nn(CC4CCCCC4)c4ccccc34)C[C@@H](C1)N2C [Example 3, endo-3,9-Dimethyl-3,9-diazabicyclo[3.3.1]non-7-yl 1-cyclohexylmethylindazole-3-carboxamide] |  | 13 | 70 |  |  |
| CN1[C@@H]2C[C@@H](NC(=O)c3n[nH]c4ccccc34)C[C@H]1CN(Cc1ccccc1)C2 [Example 22, endo-3-Benzyl-9-methyl-3,9-diazabicyclo[3.3.1]non-7-yl 1H-indazole-3-carboxamide] |  | 48 | 87 |  |  |
| CC(C)COC(=O)n1nc(C(=O)N[C@@H]2C[C@@H]3CN(C)C[C@H](C2)N3C)c2ccccc21 [Example 18, endo-3,9-Dimethyl-3,9-diazabicyclo[3.3.1]non-7-yl 1-isobutoxycarbonylindazole-3-carboxamide] |  | 23 | 53 |  |  |
| CN1C[C@H]2C[C@@H](NC(=O)c3nn(CC#N)c4ccccc34)C[C@@H](C1)N2C [Example 10, endo-3,9-Dimethyl-3,9-diazabicyclo[3.3.1]non-7-yl 1-cyanomethylindazole-3-carboxamide] |  | 37 | 100 |  |  |
| C=CCN1C[C@H]2C[C@@H](NC(=O)c3n[nH]c4ccccc34)C[C@@H](C1)N2C [Example 26, endo-3-Allyl-9-methyl-3,9-diazabicyclo[3.3.1]non-7-yl 1H-indazole-3-carboxamide] |  | 38 |  |  |  |
| CC(=O)N1C[C@H]2C[C@@H](NC(=O)c3n[nH]c4ccccc34)C[C@@H](C1)N2C [Example 28, endo-3-Acetyl-9-methyl-3,9-diazabicyclo[3.3.1]non-7-yl 1H-indazola-3-carboxamide] |  | 23 | 71 |  |  |
| CN1C[C@H]2C[C@@H](NC(=O)c3nn(Cc4ccccc4[N+](=O)[O-])c4ccccc34)C[C@@H](C1)N2C [Example 14, endo-3,9-Dimethyl-3,9-diazabicyclo[3.3.1]non-7-yl 1-(2-nitrobenzyl) indazole-3-carboxamide] |  | 18 | 97 |  |  |
| CN1C[C@H]2C[C@@H](NC(=O)c3nn(CC4CC4)c4ccccc34)C[C@@H](C1)N2C [Example 4] |  | 60 |  |  |  |
| CC(=O)Cn1nc(C(=O)N[C@@H]2C[C@@H]3CN(C)C[C@H](C2)N3C)c2ccccc21 [Example 12, endo-3,9-Dimethyl-3,9-diazabicyclo[3.3.1]non-7-yl 1-(2-oxopropyl) indazole-3-carboxamide] | 45 | 57 | 72 |  |  |
| CN1C[C@H]2C[C@@H](NC(=O)c3n[nH]c4ccccc34)C[C@@H](C1)N2Cc1ccccc1 [Example 24, endo-9-Benzyl-3-methyl-3,9-diazabicyclo[3.3.1]non-7-yl 1H-indazole-3-carboxamide] |  | 35 |  |  |  |
